Source: ChEMBL document CHEMBL4321867, “Optimization of LpxC Inhibitor Lead Compounds Focusing on Efficacy and Formulation for High Dose Intravenous Administration” (J Med Chem, 2020)
≈ marks a conversion by molar mass, not a printed value.

Assays:
[1] = in vitro; settings: rat, plasma
[2] = test system: Enterobacter cloacae; assay: microbe, parasite or virus in culture
[3] = physchem; settings: 5% mannitol/water, pH 4.5
[4] = test system: Klebsiella pneumoniae; assay: microbe, parasite or virus in culture; settings: T6474
[5] = test system: Moraxella catarrhalis; assay: microbe, parasite or virus in culture
[6] = test system: Klebsiella pneumoniae; assay: microbe, parasite or virus in culture
[7] = test system: Escherichia coli; assay: microbe, parasite or virus in culture
[8] = physchem; settings: buffer, pH 9
[9] = physchem; settings: buffer, pH 4
[10] = in vitro; settings: human, liver microsomes
[11] = test system: Pseudomonas aeruginosa; assay: microbe, parasite or virus in culture; settings: ATCC 27853
[12] = test system: Citrobacter freundii; assay: microbe, parasite or virus in culture
[13] = test system: Klebsiella aerogenes; assay: microbe, parasite or virus in culture
[14] = test system: Serratia marcescens; assay: microbe, parasite or virus in culture
[15] = test system: Escherichia coli; assay: microbe, parasite or virus in culture; settings: ATCC 25922
[16] = physchem
[17] = test system: Pseudomonas aeruginosa; assay: microbe, parasite or virus in culture
[18] = test system: Acinetobacter baumannii; assay: microbe, parasite or virus in culture
[19] = test system: T1, UDP-3-O-acyl-N-acetylglucosamine deacetylase (Pseudomonas aeruginosa (strain ATCC 15692 / PAO1 / 1C / PRS 101 / LMG12228)), P47205 [C40S]; settings: 25 uM
T1 sequence (whole entry): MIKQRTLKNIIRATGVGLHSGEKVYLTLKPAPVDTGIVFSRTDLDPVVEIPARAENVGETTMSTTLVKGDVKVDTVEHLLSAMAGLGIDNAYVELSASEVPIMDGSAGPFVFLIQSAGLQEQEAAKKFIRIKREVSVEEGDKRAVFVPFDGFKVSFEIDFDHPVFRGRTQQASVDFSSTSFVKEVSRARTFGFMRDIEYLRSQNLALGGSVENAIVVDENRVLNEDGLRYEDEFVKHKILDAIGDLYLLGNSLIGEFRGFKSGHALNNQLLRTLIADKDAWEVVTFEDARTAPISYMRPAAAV

[20] = test system: Klebsiella oxytoca; assay: microbe, parasite or virus in culture
[21] = test system: Morganella morganii; assay: microbe, parasite or virus in culture
[22] = physchem; settings: buffer, pH 7
[23] = test system: Stenotrophomonas maltophilia; assay: microbe, parasite or virus in culture
[24] = test system: Haemophilus influenzae; assay: microbe, parasite or virus in culture
[25] = in vivo; settings: Wistar, rat, iv, 50 mg/kg
[26] = test system: Burkholderia cepacia; assay: microbe, parasite or virus in culture
[27] = physchem; settings: n-octanol/phosphate buffer, pH 7.4
[28] = in vivo; settings: mouse, sc, 150 mg/kg
[29] = in vitro; settings: rat, hepatocytes
[30] = in vitro; settings: human, hepatocytes
[31] = in vitro; settings: rat, liver microsomes
[32] = test system: Proteus mirabilis; assay: microbe, parasite or virus in culture
[33] = test system: T2, UDP-3-O-acyl-N-acetylglucosamine deacetylase (Escherichia coli K-12), P0A725 [C125S]; settings: 25 uM
T2 sequence (whole entry): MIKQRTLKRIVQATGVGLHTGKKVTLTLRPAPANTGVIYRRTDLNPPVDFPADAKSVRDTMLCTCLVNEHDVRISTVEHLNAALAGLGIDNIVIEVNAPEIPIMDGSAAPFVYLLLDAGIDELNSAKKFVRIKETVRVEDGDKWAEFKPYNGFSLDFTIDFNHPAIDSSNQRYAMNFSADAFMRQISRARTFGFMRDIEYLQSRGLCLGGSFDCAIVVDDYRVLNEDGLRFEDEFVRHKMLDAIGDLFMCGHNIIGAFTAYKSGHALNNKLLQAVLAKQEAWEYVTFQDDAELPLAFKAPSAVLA

[34] = in vivo; settings: Wistar, rat, iv, 10 mg/kg
[35] = in vivo; settings: mouse, sc, 50 mg/kg

Structure (SMILES) | fraction unbound at 1 µM [1] | MIC [4] | MIC90 [5] | MIC90 [6] | MIC90 [7] | solubility at 24 h [8] | solubility at 24 h [9] | microsomal CLint at 1 µM [10] | MIC [11] | MIC90 [12] | MIC90 [13] | MIC90 [14] | MIC [15] | MIC90 [17] | MIC90 [18] | MIC90 [20] | MIC90 [21] | solubility at 24 h [22] | MIC90 [23] | MIC90 [24] | also measured
C[C@@](CCN1Cc2cc(C#CC#CC3CN(CCO)C3)cn2C1=O)(C(=O)NO)S(C)(=O)=O | 0.301 | 1 µg/mL (≈ 2.16 µM) | > 16 µg/mL | 2 µg/mL (≈ 4.32 µM) | 1 µg/mL (≈ 2.16 µM) | > 780 µg/mL | > 780 µg/mL | 14 µL/min/mg | 0.5 µg/mL (≈ 1.08 µM) | 1 µg/mL (≈ 2.16 µM) | 1 µg/mL (≈ 2.16 µM) | 1 µg/mL (≈ 2.16 µM) | 0.5 µg/mL (≈ 1.08 µM) | 2 µg/mL (≈ 4.32 µM) | > 16 µg/mL | 4 µg/mL (≈ 8.65 µM) | 1 µg/mL (≈ 2.16 µM) | > 780 µg/mL | > 16 µg/mL | ≤ 0.03 µg/mL | MIC90 [2]: 4 µg/mL (≈ 8.65 µM); solubility [3]: 30000 µg/mL (≈ 64900 µM); pKa [16]: 7.9; deltaTm [19]: 11.2 K; clearance at 24 h [25]: 28 mL/min/kg; MIC90 [26]: 16 µg/mL (≈ 34.6 µM); logD [27]: 0.1; AUC(0-t) at 24 h [28]: 63200 ng·h/mL; hepatocyte CLint at 1 µM [29]: 7.3 µL/min/1e6 cells; hepatocyte CLint at 1 µM [30]: < 2 µL/min/1e6 cells; microsomal CLint at 1 µM [31]: 198 µL/min/mg; MIC90 [32]: 1 µg/mL (≈ 2.16 µM); deltaTm [33]: 9.7 K
O=C(O)c1cn(C2CC2)c2cc(N3CCNCC3)c(F)cc2c1=O [CIPROFLOXACIN] |  |  | 1 µg/mL (≈ 3.02 µM) | > 8 µg/mL | > 8 µg/mL |  |  |  |  | 0.125 µg/mL (≈ 0.377 µM) | 0.03 µg/mL (≈ 0.0905 µM) | 0.25 µg/mL (≈ 0.754 µM) |  | > 8 µg/mL | > 8 µg/mL | ≤ 0.016 µg/mL | ≤ 0.016 µg/mL |  | 8 µg/mL (≈ 24.1 µM) | ≤ 0.016 µg/mL | MIC90 [26]: 8 µg/mL (≈ 24.1 µM); MIC90 [32]: 0.125 µg/mL (≈ 0.377 µM)
C[C@@](CCN1Cc2cc(C#CC#C[C@H]3C[C@@H]3CO)cn2C1=O)(C(=O)NO)S(C)(=O)=O | 0.008 | 0.25 µg/mL (≈ 0.577 µM) |  |  |  | 628 µg/mL (≈ 1450 µM) | 600 µg/mL (≈ 1380 µM) | < 10 µL/min/mg | 0.25 µg/mL (≈ 0.577 µM) |  |  |  | 0.12 µg/mL (≈ 0.277 µM) |  |  |  |  | 588 µg/mL (≈ 1360 µM) |  |  | clearance at 24 h [34]: 17 mL/min/kg; AUC(0-t) at 24 h [35]: 124000 ng·h/mL; hepatocyte CLint at 1 µM [29]: 19 µL/min/1e6 cells; hepatocyte CLint at 1 µM [30]: 3.2 µL/min/1e6 cells; microsomal CLint at 1 µM [31]: < 10 µL/min/mg
CN1CC(C#CC#Cc2cc3n(c2)C(=O)N(CC[C@](C)(C(=O)NO)S(C)(=O)=O)C3)C1 | 0.19 | 0.5 µg/mL (≈ 1.16 µM) | > 16 µg/mL | 4 µg/mL (≈ 9.25 µM) | 1 µg/mL (≈ 2.31 µM) | > 730 µg/mL | > 730 µg/mL | 48 µL/min/mg | 0.5 µg/mL (≈ 1.16 µM) | 1 µg/mL (≈ 2.31 µM) | 1 µg/mL (≈ 2.31 µM) | 0.5 µg/mL (≈ 1.16 µM) | 0.5 µg/mL (≈ 1.16 µM) | 2 µg/mL (≈ 4.62 µM) | > 16 µg/mL | 4 µg/mL (≈ 9.25 µM) | 0.5 µg/mL (≈ 1.16 µM) | > 730 µg/mL | > 16 µg/mL | ≤ 0.03 µg/mL | MIC90 [2]: 4 µg/mL (≈ 9.25 µM); solubility [3]: 30000 µg/mL (≈ 69400 µM); clearance at 24 h [34]: 18 mL/min/kg; pKa [16]: 8.4; deltaTm [19]: 9.9 K; MIC90 [26]: 16 µg/mL (≈ 37 µM); logD [27]: 0.3; AUC(0-t) at 24 h [28]: 52900 ng·h/mL; hepatocyte CLint at 1 µM [29]: 8.6 µL/min/1e6 cells; hepatocyte CLint at 1 µM [30]: < 2 µL/min/1e6 cells; microsomal CLint at 1 µM [31]: 665 µL/min/mg; MIC90 [32]: 1 µg/mL (≈ 2.31 µM); deltaTm [33]: 8.9 K
